In patent US4430355A, “Condensed isothiazolo-3 (2H)-one-1-1-dioxides” (priority 1977, dated 1984):
Like-named read-outs stand apart in the source and are kept apart here.

What was measured:
[1] = Determination of the relative sweetening power in comparison to saccharose (taste testers, 3% saccharose solution)
Text: The relative sweetening power (often also defined as degree of sweetness) of sweetening agents in comparison to saccharose (cane sugar) varies with the concentrations within wide limits. Thus, in the usual concentrations (corresponding to a 2-10% solution of saccharose) the relative sweetening power of saccharin varies from 200 to 700. Therefore, for the determination of the relative sweetening power of the above-mentioned compounds a 3% aqueous solution of saccharose was always used for comparison.
The further determination of the relative sweetening power was continued according to the methods of R. Pauli [Chemiker Zeitung 44, 744 (1920)] and T. Paul [Chemiker-Zeitung 45 38 (1921)]. Each test series was tested by 4 taste testers.

[2] = Determination of the threshold concentration (taste testers, Schutz and Pilgrim method); set-up: key: mean of 5 testers; 0 = not sweet, 3 = very sweet
Method: From novel compounds A, B, C, D, E and F and from known comparison compounds U, V and W aqueous solutions in concentrations of 1:12500, 1:25000, 1:50000, 1:100000 and 1:200000 were prepared and evaluated by each of 5 taste testers according to the following criteria: Very sweet (=3 points); medium sweet (=2 points), slightly sweet (=1 point) and not sweet (=0 point). The tests were carried out according to the method of H. G. Schutz and F. J. Pilgrim [Food Research 22, 206 (1957)]. The dilution with perceptible sweetness was defined as the concentration at which the average value reached the evaluation points 1.0 or higher.

[3] = Evaluation of taste quality
Text: They often have a side-taste or after-taste. Novel compounds A to F are, however, characterized by a very pure sweet taste.

mouse = assay: Orienting acute toxicity, oral, mouse; type: in vivo; conditions: 6 animals
Method: The acute toxicity was determined after oral administration to male and female mice and to male and female rats. The substances were given in an aqueous solution or as a suspension in tylose.

[4] = test system: Escherichia coli WP 2 (P); assay: AMES-system, test for mutagenic effects, Escherichia coli; type: cell-based
Method: In order to show the whole spectrum of induced molecular DNA-damages (base substitutions, frame-shift mutations, deletions) the auxotrophic bacterial strains Salmonella typhimurium TA 98, TA 100 and Escherichia coli WP 2 (P) were used as genetic indicators.
The test for all microorganisms were carried out in a way such that the influence of a microsomal enzyme system, together with the corresponding co-factors, could be tested with regard to the test substance, and to determine the differences in enzyme induction. The tests were performed without an activating system and in the presence of an activating system. […] From the S-9 induced fraction, 3 different concentration levels were tested.

microorganism growth = assay: Series dilution essay, inhibition of the microorganism growth; type: cell-based; conditions: highest dosages (C 0.5 mgm/plate, D 20 mg/plate)
Method: (§1) The substance concentrations of compound C were 0.1 and 0.5 mgm/plate and the concentrations of compound D were 5, 10, 15 and 20 mg/plate.

[5] = test system: Salmonella typhimurium TA 98, TA 100, TA 1535, TA 1537, TA 1538; assay: AMES-system, test for mutagenic effects, Salmonella typhimurium; type: cell-based
Method: Compounds C and D were tested in the AMES-system [Mutation Research 31, 347-364 (1975)] with regard to their mutagenic properties. In order to show the whole spectrum of induced molecular DNA-damages (base substitutions, frame-shift mutations, deletions) the auxotrophic bacterial strains Salmonella typhimurium TA 98, TA 100 and Escherichia coli WP 2 (P) were used as genetic indicators. The strains Salmonella typhimurium TA 1535, TA 1537 and TA 1538 were additionally used in the test of compound C.
The test for all microorganisms were carried out in a way such that the influence of a microsomal enzyme system, together with the corresponding co-factors, could be tested with regard to the test substance, and to determine the differences in enzyme induction. The tests were performed without an activating system and in the presence of an activating system. For the in vitro-activation, S-9 supernatants (fraction of the endoplasmatic reticulum) of normal, i.e. not pre-treated rats and of Aroclor 1254 (500 mg/kg) induced rats were used. From the S-9 induced fraction, 3 different concentration levels were tested.
as §1

[6] = higher dosage levels; cited from earlier work
[7] = value given on page 6 of German Offenlegungsschrift 2,534,689; cited from earlier work
[8] = compared with 3% aqueous solution of saccharose

In the case of `Cc1cc2c(o1)S(=O)(=O)NC2=O` [A, 5-Methyl-furo[3,2-d]isothiazole-3-(2H)-one-1,1-dioxide], the “Relative Sweetening Power (Saccharose = 1)” value (“Relative Sweetening Power” for short) [1, 8] is reported as 150, the “Average Value of Evaluation Points” value ([2]; concentration 1:12500) is reported as 1.4 and the “Average Value of Evaluation Points” value ([2]; concentration 1:25000) is reported as 0.2. The “taste quality compared with saccharose (cane sugar)” value [3] was “achieve the taste quality of saccharose”, the “Animals which died within the observation time, 1 day” value (mouse; 1000 mgm/kg oral) was 0 animals and the “Animals which died within the observation time, 7 days” value (mouse; 1000 mgm/kg oral) was 0 animals.

For `Cc1cc2c(s1)S(=O)(=O)NC2=O` [B, 5-Methyl-thieno[3,2-d]isothiazole-3(2H)-one-1,1-dioxide], the “Relative Sweetening Power” value [1, 8] was 550, the “Average Value of Evaluation Points” value ([2]; concentration 1:25000) was 2.2 and the “Average Value of Evaluation Points” value ([2]; concentration 1:50000) was 1.4. The “Average Value of Evaluation Points” value ([2]; concentration 1:100000) was 0.2, the “Animals which died within the observation time, 1 day” value (mouse; 5000 mgm/kg oral) was 0 animals and the “Animals which died within the observation time, 7 days” value (mouse; 5000 mgm/kg oral) was 0 animals.

In the case of `Cc1cc2c(s1)S(=O)(=O)NC2=O.[Ca]` [D, 5-Methyl-thieno[3,2-d]isothiazole-3(2H)-one-1,1-dioxide calcium salt], the “release of base substitutions” value ([4]; E. coli WP2 (P)) is reported as “do not release base substitutions”, the “increase in the spontaneous mutation rate” value ([4]; E. coli WP 2 (P), C 0.1 and 0.5 mgm/plate, D 5-20 mg/plate, with and without activating system) is reported as “did not lead to an increase” and the “Relative Sweetening Power” value [1, 8] is reported as 500. The “Average Value of Evaluation Points” value ([2]; concentration 1:25000) was 1.8, the “Average Value of Evaluation Points” value ([2]; concentration 1:50000) was 1.0 and the “Average Value of Evaluation Points” value ([2]; concentration 1:100000) was 0.0. The “inhibition of the microorganism growth” value (microorganism growth) was “did not show any inhibition”, the “release of base substitutions” value ([5]; S. typhimurium TA 1535, TA 100) was “do not release base substitutions” and the “release of frame-shift mutations” value ([5]; S. typhimurium TA 1537, TA 1538, TA 98) was “do not release”. The “increase in the spontaneous mutation rate” value ([5]; Salmonella strains, C 0.1 and 0.5 mgm/plate, D 5-20 mg/plate, with and without activating system) was “did not lead to an increase”, the “colonies counted on the substance plates” value ([5]; all test strains) was “within the spontaneous range” and the “effect of the enzyme induction and of the activating fraction on the reverse mutation rate” value ([5]; all tested strains, S-9 of normal and Aroclor 1254 induced rats) was “not detectable”. The mutagenic potential ([5]; conclusion over all tested strains) was “do not indicate a mutagenic potential”, the “Animals which died within the observation time, 1 day” value (mouse; 5000 mgm/kg oral) was 0 animals and the “Animals which died within the observation time, 7 days” value (mouse; 5000 mgm/kg oral) was 0 animals.

With `Cc1sc2c(c1C)C(=O)NS2(=O)=O` [E, 4,5-Dimethyl-thieno[3,2-d]isothiazole-3(2H)-one-1,1-dioxide] the “Relative Sweetening Power” value [1, 8] was 1050, the “Average Value of Evaluation Points” value ([2]; concentration 1:50000) was 2.2 and the “Average Value of Evaluation Points” value ([2]; concentration 1:100000) was 1.6. For the same compound, the “Average Value of Evaluation Points” value ([2]; concentration 1:200000) was 0.4, the “Animals which died within the observation time, 1 day” value (mouse; 1000 mgm/kg oral) was 0 animals and the “Animals which died within the observation time, 7 days” value (mouse; 1000 mgm/kg oral) was 0 animals.

In the case of `Cc1sc2c(c1C)C(=O)NS2(=O)=O.[Na]` [F, 4,5-Dimethyl-thieno[3,2-d]isothiazole-3(2H)-one-1,1-dioxide sodium salt], the “Relative Sweetening Power” value [1, 8] is reported as 1000, the “Average Value of Evaluation Points” value ([2]; concentration 1:50000) is reported as 2.0 and the “Average Value of Evaluation Points” value ([2]; concentration 1:100000) is reported as 1.4. For the same compound, the “Average Value of Evaluation Points” value ([2]; concentration 1:200000) was 0.2.

In the case of `O=S(=O)(O)NC1CCCCC1` [U, Cyclamate, reference compound], the “Relative Sweetening Power” value [1] is given as 60, the “Average Value of Evaluation Points” value ([2]; concentration 1:12500) is given as 0.4 and the “safety as sweetening agent” value [6] is given as “not entirely safe”.

In the case of `O=C1NS(=O)(=O)c2ccccc21.[Na]` [W, Saccharin sodium, reference compound], the “Relative Sweetening Power” value [1, 8] is reported as 550, the “Average Value of Evaluation Points” value ([2]; concentration 1:25000) is reported as 2.2 and the “Average Value of Evaluation Points” value ([2]; concentration 1:50000) is reported as 1.2. For the same compound, the “Average Value of Evaluation Points” value ([2]; concentration 1:100000) was 0.0.

In the case of `O=C1NS(=O)(=O)c2sccc21` [X, Thieno[3,2-d]isothiazole-3(2H)-one-1,1-dioxide], the “Relative Sweetening Power” value [7] is given as 350.
